Legend:
[1] = Cytotoxicity against human HepG2 cells measured after 72 hrs by hoechst 33342 staining based imaging assay; assay type: toxicity, cell-based
Plasmodium falciparum = test: microbe, parasite or virus in culture; assay type: functional, organism-based; conditions: W2, 72 h

| SMILES | CC50 at 72 h ([1]; read-out: CC50) [µM] | CC50 at 72 h ([1]; read-out: pCC50 (converted)) [µM] | EC50 (Plasmodium falciparum; read-out: pEC50 (converted)) [µM] | EC50 (Plasmodium falciparum; read-out: EC50) [µM] |
| --- | --- | --- | --- | --- |
| CC(=O)c1ccc(N(C)C(=O)c2ncn(-c3ccc(Cl)cc3)n2)cc1 | > 10 | > 10 | 2.4 | – |
| CN(C(=O)c1ncn(-c2ccc(Cl)cc2)n1)c1ccc(Cl)cc1 | > 10 | > 10 | 0.525 | – |
| O=C(Nc1ncn(-c2ccc(Cl)cc2)n1)c1ccc(Cl)cc1 | > 10 | > 10 | 3.09 | – |
| CCc1ccc(-n2cnc(C(=O)N(C)c3ccc(Cl)cc3)n2)cc1 | > 10 | > 10 | 0.617 | – |
| O=C(Nc1ccc(-c2cc3ccccc3oc2=O)cc1)c1cccc2ccccc12 | 1.16 | 1.15 | > 4.07 | > 4.05 |
| O=C(c1ccc(Cl)cc1)c1cc(-c2ccc(Cl)cc2)ccn1 | > 10 | > 10 | > 10 | > 10000 |
| O=C(c1ccc(Cl)cc1)c1ncc(-c2ccc(Cl)cc2)o1 | > 10 | > 10 | > 10 | > 10000 |
| O=C(Nc1ccc(Cl)c(Cl)c1)c1ncn(-c2ccc(Cl)cc2)n1 | > 10 | > 10 | > 10 | > 10 |
| COc1ccc(-n2cnc(C(=O)N(C)c3ccc(C)c(C)c3)n2)cc1 | > 10 | > 10 | > 10 | > 10 |
| CN(C(=O)c1ncc(-c2ccc(Cl)cc2)[nH]1)c1ccc(Cl)cc1 | > 10 | > 10 | > 7.08 | > 7.09 |
| Cc1ccc(-c2ncc(C(=O)N(C)c3ccc(Cl)cc3)o2)cc1 | > 10 | > 10 | > 10 | > 10 |
| Cc1cccc(N(C)C(=O)c2ncn(-c3ccc(C(C)C)cc3)n2)c1 | > 10 | > 10 | > 3.31 | > 3.33 |
| COc1ccc(N(C)C(=O)c2ncn(-c3ccc(C)cc3)n2)cc1 | > 10 | > 10 | > 4.07 | > 4.11 |
| Cc1nc(-c2ccc(Cl)cc2)sc1C(=O)N(C)c1ccc(Cl)cc1 | > 10 | > 10 | > 10 | > 10 |
| Cc1ccc(N(C)C(=O)c2ncn(-c3ccc(Cl)cc3)n2)cc1C | > 10 | > 10 | 2.34 | – |
| Cc1ccc(-c2cnc(C(=O)N(C)c3ccc(Cl)cc3)o2)cc1 | > 10 | > 10 | 0.676 | – |
| CC(=O)c1ccc(NC(=O)c2ncn(-c3ccc(Cl)cc3)n2)cc1 | > 10 | > 10 | > 10 | > 10 |
| COc1ccc(-n2cnc(C(=O)N(C)c3cccc(C)c3)n2)cc1 | > 10 | > 10 | > 5.75 | > 5.77 |
| Cc1ccc(-c2nc(C)c(C(=O)N(C)c3ccc(Cl)cc3)o2)cc1 | > 10 | > 10 | > 8.91 | > 8.87 |
| CC(C)c1ccc(-n2cnc(C(=O)N(C)c3ccc(Cl)cc3)n2)cc1 | > 10 | > 10 | 0.851 | – |
| CCc1ccc(-n2cnc(C(=O)N(C)c3ccc(C)cc3)n2)cc1 | > 10 | > 10 | 0.575 | – |

| SMILES | CC50 at 72 h ([1]; read-out: CC50) [µM] | CC50 at 72 h ([1]; read-out: pCC50 (converted)) [µM] | EC50 (Plasmodium falciparum; read-out: pEC50 (converted)) [µM] | EC50 (Plasmodium falciparum; read-out: EC50) [µM] |
| --- | --- | --- | --- | --- |
| Cc1ccc(-c2cnc(C(=O)N(C)c3ccc(Cl)cc3)s2)cc1 | > 10 | > 10 | > 10 | > 10 |
| CN(C(=O)c1cnc(-c2ccc(Cl)cc2)[nH]1)c1ccc(Cl)cc1 | > 10 | > 10 | > 2.24 | > 2.26 |
| CCc1ccc(-n2cnc(C(=O)N(C)c3ccc(C)c(C)c3)n2)cc1 | > 10 | > 10 | 2 | – |
| CN(C(=O)c1cn(-c2ccc(Cl)cc2)nn1)c1ccc(Cl)cc1 | > 10 | > 10 | > 10 | > 10 |
| Cc1ccc(N(C)C(=O)c2ncn(-c3ccc(C(C)C)cc3)n2)cc1 | > 10 | > 10 | 0.741 | – |
| Cc1ccc(N(C)C(=O)c2ncn(-c3ccc(C(C)C)cc3)n2)cc1C | > 10 | > 10 | > 3.89 | > 3.86 |
| Cc1ccc(-c2nc(C)c(C(=O)N(C)c3ccc(Cl)cc3)s2)cc1 | > 10 | > 10 | > 4.79 | > 4.78 |
| CN(C(=O)c1ncn(-c2ccc(Cl)cc2)n1)c1ccc(F)cc1 | > 10 | > 10 | 1.78 | – |
| [2H]C([2H])([2H])N(C(=O)c1ncc(-c2ccc(Cl)cc2)o1)c1ccc(Cl)cc1 | – | – | 0.389 | 388 |
| Cc1ccc(N(C)C(=O)c2cn(-c3ccc(Cl)cc3)nn2)cc1 | > 10 | > 10 | > 10 | > 10 |
| Cc1ccc(-c2ncc(C(=O)N(C)c3ccc(Cl)cc3)s2)cc1 | > 10 | > 10 | > 10 | > 10 |
| CCc1ccc(N(C)C(=O)c2ncn(-c3ccc(Cl)cc3)n2)cc1 | > 10 | > 10 | > 5.25 | > 5.24 |
| CN(C(=O)c1cnc(-c2ccc(Cl)cc2)s1)c1ccc(Cl)cc1 | > 10 | > 10 | > 10 | > 10 |
| Cc1ccc(-n2cc(C(=O)N(C)c3ccc(Cl)cc3)nn2)cc1 | > 10 | > 10 | > 10 | > 10 |
| CN(C(=O)c1ncn(-c2ccc(Cl)cc2)n1)c1ccc(C(C)(C)C)cc1 | > 1.76 | > 1.78 | > 7.94 | > 8.03 |
| CN(C(=O)c1cncc(-c2ccc(Cl)cc2)c1)c1ccc(Cl)cc1 | > 10 | > 10 | – | – |
| CN(C(=O)c1ccc(Cl)cc1)c1ncn(-c2ccc(Cl)cc2)n1 | > 10 | > 10 | > 1.51 | > 1.52 |
| CN(C(=O)c1ncc(-c2ccc(Cl)cc2)s1)c1ccc(Cl)cc1 | > 10 | > 10 | > 6.76 | > 6.75 |
| Cc1ccc(-c2cnc(C(=O)N(C)c3ccc(Cl)cc3)[nH]2)cc1 | > 10 | > 10 | > 10 | > 10 |
| Cc1ccc(-n2cnc(N(C)C(=O)c3ccc(Cl)cc3)n2)cc1 | > 10 | > 10 | > 1.82 | > 1.8 |
| Cc1ccc(-n2cnc(C(=O)N(C)c3ccc(C)c(C)c3)n2)cc1 | > 10 | > 10 | > 6.92 | > 6.93 |

| SMILES | CC50 at 72 h ([1]; read-out: CC50) [µM] | CC50 at 72 h ([1]; read-out: pCC50 (converted)) [µM] | EC50 (Plasmodium falciparum; read-out: pEC50 (converted)) [µM] | EC50 (Plasmodium falciparum; read-out: EC50) [µM] |
| --- | --- | --- | --- | --- |
| O=C1c2sc(-c3ccc(Cl)cc3)nc2CN1c1ccc(Cl)cc1 | > 10 | > 10 | > 10 | > 10 |
| Cc1ccc(N(C)C(=O)c2cn(-c3ccc(C)cc3)nn2)cc1 | > 10 | > 10 | > 10 | > 10 |
| CCc1ccc(-n2cnc(C(=O)N(C)c3ccc(OC)cc3)n2)cc1 | > 10 | > 10 | 0.933 | – |
| COc1ccc(-n2cnc(C(=O)N(C)c3ccc(Cl)cc3)n2)cc1 | > 10 | > 10 | > 3.89 | > 3.86 |
| O=C(Nc1ccc(Cl)cc1)c1ncn(-c2ccc(Cl)cc2)n1 | > 10 | > 10 | > 6.46 | > 6.44 |
| COc1ccc(N(C)C(=O)c2ncn(-c3ccc(C(C)C)cc3)n2)cc1 | > 10 | > 10 | 1.62 | – |
| Cc1ccc(C(=O)N(C)c2ncn(-c3ccc(Cl)cc3)n2)cc1 | > 10 | > 10 | 4.27 | – |
| Cc1nc(-c2ccc(Cl)cc2)oc1C(=O)N(C)c1ccc(Cl)cc1 | > 10 | > 10 | > 4.37 | > 4.34 |
| Cc1ccc(-n2cnc(C(=O)N(C)c3cccc(C)c3)n2)cc1 | > 10 | > 10 | > 2.82 | > 2.82 |
| O=C(Nc1ccc(C(F)(F)F)cc1)c1ncn(-c2ccc(Cl)cc2)n1 | > 10 | > 10 | > 6.46 | > 6.44 |
| Cc1ccc(-n2cnc(C(=O)Nc3ccc(Cl)cc3)n2)cc1 | > 10 | > 10 | > 10 | > 10 |
| CN(C(=O)c1cc(-c2ccc(Cl)cc2)ccn1)c1ccc(Cl)cc1 | – | – | 0.17 | 0.169 |
| Cc1ccc(C(=O)Nc2ncn(-c3ccc(C)cc3)n2)cc1 | > 10 | > 10 | 2.51 | – |
| CN(C(=O)c1ncn(-c2ccc(Cl)cc2)n1)c1ccc([N+](=O)[O-])cc1 | > 10 | > 10 | 2.29 | – |
| Cc1ccc(-n2cnc(C(=O)N(C)c3ccc(Cl)cc3)n2)cc1 | > 10 | > 10 | 1.7 | 1.68 |
| Cc1ccc(-c2ncc(C(=O)N(C)c3ccc(Cl)cc3)[nH]2)cc1 | > 10 | > 10 | 3.39 | – |
| COc1ccc(-n2cnc(C(=O)N(C)c3ccc(C)cc3)n2)cc1 | > 10 | > 10 | 5.75 | – |
| O=C(Nc1ccc([N+](=O)[O-])cc1)c1ncn(-c2ccc(Cl)cc2)n1 | > 10 | > 10 | > 10 | > 10 |
| COc1ccc(N(C)C(=O)c2ncn(-c3ccc(Cl)cc3)n2)cc1 | > 10 | > 10 | 1.91 | – |
| CN(C(=O)c1cnc(-c2ccc(Cl)cc2)o1)c1ccc(Cl)cc1 | > 10 | > 10 | > 10 | > 10 |
| COc1ccc(N(C)C(=O)c2ncn(-c3ccc(OC)cc3)n2)cc1 | > 10 | > 10 | > 10 | > 10 |
